Measurements as given in ChEMBL document CHEMBL1132051, “4-Alkyl- and 3,4-dialkyl-1,2,3,4-tetrahydro-8-pyridono[5,6-g]quinolines: potent, nonsteroidal androgen receptor agonists” (Bioorg Med Chem Lett, 1999).

What was measured:
[1] = target: T1, Androgen receptor (Homo sapiens, UniProt P10275); test: Antagonistic activity against human androgen receptor (hAR) in CV-1 cells was determined as a function of maximal inhibition of dihydrotestosterone using cotransfection assay; format: functional, cell-based
T1 sequence (P10275 whole entry): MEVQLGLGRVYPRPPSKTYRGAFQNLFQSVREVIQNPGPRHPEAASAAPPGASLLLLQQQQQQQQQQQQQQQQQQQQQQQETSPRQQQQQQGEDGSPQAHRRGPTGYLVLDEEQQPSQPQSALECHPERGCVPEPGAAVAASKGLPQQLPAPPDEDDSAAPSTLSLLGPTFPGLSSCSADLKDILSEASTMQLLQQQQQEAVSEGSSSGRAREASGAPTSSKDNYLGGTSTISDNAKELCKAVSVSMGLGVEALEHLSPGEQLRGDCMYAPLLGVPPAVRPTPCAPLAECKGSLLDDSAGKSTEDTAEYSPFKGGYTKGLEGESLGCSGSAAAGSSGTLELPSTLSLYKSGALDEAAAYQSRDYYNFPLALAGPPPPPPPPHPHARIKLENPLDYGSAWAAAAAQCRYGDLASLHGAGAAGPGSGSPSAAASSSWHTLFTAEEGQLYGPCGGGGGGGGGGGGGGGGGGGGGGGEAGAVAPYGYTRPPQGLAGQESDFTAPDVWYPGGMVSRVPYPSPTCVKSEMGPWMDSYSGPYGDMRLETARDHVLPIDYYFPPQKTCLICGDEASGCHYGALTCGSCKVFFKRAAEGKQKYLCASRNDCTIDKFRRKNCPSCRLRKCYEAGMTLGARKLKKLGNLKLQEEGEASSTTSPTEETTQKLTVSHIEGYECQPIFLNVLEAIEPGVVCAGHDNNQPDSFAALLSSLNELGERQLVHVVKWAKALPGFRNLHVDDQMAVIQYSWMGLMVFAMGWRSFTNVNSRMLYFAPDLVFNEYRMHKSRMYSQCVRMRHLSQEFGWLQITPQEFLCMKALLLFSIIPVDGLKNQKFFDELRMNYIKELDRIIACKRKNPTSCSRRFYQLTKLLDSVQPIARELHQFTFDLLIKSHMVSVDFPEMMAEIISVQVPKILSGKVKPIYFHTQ

[2] = target: T1, Androgen receptor
Description: Binding affinity to the human androgen receptor (hAR), using [3H]DHT as radioligand in a competitive binding assay

[3] = target: T1, Androgen receptor; remark: listed apart in the source
Description: Agonist activity to the human androgen receptor (hAR) in CV-1 cells

[4] = target: T1, Androgen receptor; remark: listed apart in the source
Description: Antagonistic activity against human androgen receptor (hAR) in CV-1 cells using cotransfection assay

SMILES | IC50 [1] | Ki [2] | EC50 [3] | IC50 [4]
CCC1CCN(C=O)c2cc3nc(O)cc(C(F)(F)F)c3cc21 (stereo unspecified) | > 10000 nM | > 1000 nM | 137 nM | 
CCC1CCN(C)c2cc3c(cc21)c(C(F)(F)F)cc(=O)n3C (stereo unspecified) |  | 263 nM | > 10000 nM | 216 nM
CC1(C)CCNc2cc3[nH]c(=O)cc(C(F)(F)F)c3cc21 |  | 12 nM | 68 nM | 16 nM
CC(C)C1CCNc2cc3[nH]c(=O)cc(C(F)(F)F)c3cc21 (stereo unspecified) |  | 13 nM | 3 nM | > 10000 nM
CCC1CCNc2cc3c(cc21)c(C(F)(F)F)cc(=O)n3C (stereo unspecified) |  | 9 nM | > 10000 nM | 20 nM
C[C@H]1CNc2cc3nc(O)cc(C(F)(F)F)c3cc2C1CCC(F)(F)F (stereo partly specified) | 61 nM | 2 nM | 13 nM | 
C[C@@H]1CNc2cc3[nH]c(=O)cc(C(F)(F)F)c3cc2[C@@H]1CCC(F)(F)F |  | > 1000 nM | 82 nM | 63 nM
CC(C)CC1CCNc2cc3nc(O)cc(C(F)(F)F)c3cc21 (stereo unspecified) | > 10000 nM | 22 nM | 25 nM | 
CC1c2cc3c(C(F)(F)F)cc(O)nc3cc2NC[C@H]1C (stereo partly specified) | > 10000 nM | 8 nM | 22 nM | 
CCCC1CCNc2cc3nc(O)cc(C(F)(F)F)c3cc21 (stereo unspecified) |  | 29 nM | 19 nM | > 10000 nM
CC1c2cc3c(C(F)(F)F)cc(O)nc3cc2NC[C@@H]1C (stereo partly specified) | > 10000 nM | 16 nM | 10 nM | 
O=c1cc(C(F)(F)F)c2cc3c(cc2[nH]1)NCCC3c1cc(C(F)(F)F)cc(C(F)(F)F)c1 (stereo unspecified) |  | > 1000 nM | > 10000 nM | 251 nM
O=c1cc(C(F)(F)F)c2cc3c(cc2[nH]1)NC[C@@H]1CCC[C@H]31 |  | 8 nM | 9 nM | > 10000 nM
CCC1(CC)CCNc2cc3nc(O)cc(C(F)(F)F)c3cc21 |  | 58 nM | > 10000 nM | 73 nM
CC[C@H]1c2cc3c(C(F)(F)F)cc(=O)[nH]c3cc2NC[C@H]1C (relative stereo) | > 10000 nM | 27 nM | 7 nM | 
Oc1cc(C(F)(F)F)c2cc3c(cc2n1)NCCC3 |  | 19 nM | 317 nM | 12 nM
Oc1cc(C(F)(F)F)c2cc3c(cc2n1)NC[C@@H]1CCCC[C@H]31 |  | 2 nM | 3 nM | > 10000 nM
CC1CCNc2cc3nc(O)cc(C(F)(F)F)c3cc21 (stereo unspecified) |  | 9 nM | 15 nM | 259 nM
CC(C)C[C@H]1c2cc3c(C(F)(F)F)cc(=O)[nH]c3cc2NC[C@@H]1C (relative stereo) |  | 72 nM | 56 nM | 29 nM
Oc1cc(C(F)(F)F)c2cc3c(cc2n1)NC[C@H]1CCCC[C@H]31 | > 10000 nM | 15 nM | 2 nM | 
CCC1c2cc3c(C(F)(F)F)cc(=O)[nH]c3cc2NC[C@@H]1C (stereo partly specified) |  | 8 nM | 7 nM | 2710 nM
CCC1CCN(C)c2cc3[nH]c(=O)cc(C(F)(F)F)c3cc21 (stereo unspecified) |  | 630 nM | 158 nM | > 10000 nM
